Consider 24 compounds from patent publication US5420128A, “Pyrimidine derivatives, method of manufacturing the same, and androgen inhibitor” (Otsuka Pharmaceutical Co., Ltd., priority 1990, dated 1995).

Assay [1] deals with T1, rat prostate androgen receptor (Rattus norvegicus, UniProt P15207).
T1 construct: the supernatant was obtained as cytoplasm fraction; from tissue; host or cells: cytosol (105000×g supernatant) of rat ventral prostate, 24 hours after castration
T1 sequence (P15207 1-902): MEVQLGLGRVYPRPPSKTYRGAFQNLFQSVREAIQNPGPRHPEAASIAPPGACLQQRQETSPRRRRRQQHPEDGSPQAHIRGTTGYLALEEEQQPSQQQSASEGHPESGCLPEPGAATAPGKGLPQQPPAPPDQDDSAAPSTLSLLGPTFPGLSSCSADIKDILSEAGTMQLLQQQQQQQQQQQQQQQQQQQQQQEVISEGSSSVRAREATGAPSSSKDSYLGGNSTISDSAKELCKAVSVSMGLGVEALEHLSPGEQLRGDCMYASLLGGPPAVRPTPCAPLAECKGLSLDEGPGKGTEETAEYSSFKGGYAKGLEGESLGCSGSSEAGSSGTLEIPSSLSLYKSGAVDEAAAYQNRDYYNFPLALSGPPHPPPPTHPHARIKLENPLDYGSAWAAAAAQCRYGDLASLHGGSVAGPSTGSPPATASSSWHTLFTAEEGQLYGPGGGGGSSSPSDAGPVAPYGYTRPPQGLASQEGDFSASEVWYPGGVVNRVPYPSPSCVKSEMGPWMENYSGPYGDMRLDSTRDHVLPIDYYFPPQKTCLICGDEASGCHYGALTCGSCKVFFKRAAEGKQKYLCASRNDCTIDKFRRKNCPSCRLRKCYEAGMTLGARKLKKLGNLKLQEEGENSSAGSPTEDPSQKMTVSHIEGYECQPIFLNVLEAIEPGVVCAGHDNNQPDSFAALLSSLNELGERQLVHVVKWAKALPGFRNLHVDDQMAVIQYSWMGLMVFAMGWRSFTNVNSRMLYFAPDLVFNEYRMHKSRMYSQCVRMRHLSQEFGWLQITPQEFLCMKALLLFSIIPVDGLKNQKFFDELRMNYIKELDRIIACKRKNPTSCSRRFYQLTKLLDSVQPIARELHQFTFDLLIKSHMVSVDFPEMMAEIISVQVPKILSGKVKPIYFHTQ
The assay can be described thus: inhibitory activity on binding of ^3 H-mibolerone on rat prostate androgen receptor. As to conditions: ^3 H-mibolerone 1 nM, triamcinolone acetonide 5 μM, rat ventral prostate cytosol, 20 hours at 0° C.; read-out: Inhibitory activity on mibolerone specific binding [IC50 (M)].
Procedure: B. Measurement of inhibitory activity on binding of ^3 H-mibolerone on rat prostate androgen receptor
The rat was sacrificed 24 hours after castration, and the ventral lobe of prostate was removed, and was gently homogenized, in ice-cooling water bath, at first by using Polytron and then using Potter type homogenizer, in three-fold amount of buffer solution A (1.5 mM EDTA, 2 mM dithiothreitol, 10 mM molybdate sodium, 10 % by volume of glycerol, 10 mM NaF, 25 mM phosphate sodium, pH 7.2). The obtained homogenate was filtrated through double gauze, and centrifuged at 105000×g for 60 minutes at 4° C., and the supernatant was obtained as cytoplasm fraction.
(2) Measurement of specific binding of ^3 H-mibolerone on prostate cytoplasm androgen receptor
To the cytoplasm fraction obtained in (1), ^3 H-mibolerone (87.0 Ci/mmol) was added, so that a final concentration is adjusted to 1 nM, and at the same time, in order to inhibit binding of ^3 H-mibolerone to progestin receptor, triamsinolone acetonide was added to a final concentration of 5 μM, and the final volume was adjusted to 0.4 ml with buffer solution A, and the reaction mixture was incubated for 20 hours at 0° C. After incubation, 0.5 ml of 60% hydroxylapatite slurry (washed and equilibrate with a buffer solution B: 10 mM NaH2 P04, 20 mM tris-hydrochloric acid, pH 7.2) was added, and incubated for 10 minutes at 0° C., the solution was transferred onto a glass fiber filter, and washed five times with 5 ml portions of buffer solution B containing 0.1% (weight/volume) of Triton X-100, to remove free ^3 H-mibolerone. This glass fiber was transferred into vial, and 10 ml of aquasol-2 was added, and the radioactivity was measured, and the total binding amount of ^3 H-mibolerone on prostate cytoplasm androgen receptor was determined.
The nonspecific binding amount was determined similarly by adding an unlabeled 5α-DHT in the reaction solution to a final concentration of 1 μM. The difference between the total binding amount and nonspecific binding amount was determined as the specific binding amount on the androgen receptor.
(3) Inhibitory activity of sample compounds on ^3 H-mibolerone specific binding
The compounds obtained in the experiments were added simultaneously with ^3 H-mibolerone at different concentrations to incubate same as in (2), and the specific binding amount of 3H-mibolerone on androgen receptor was determined. Comparing this value with the value obtained in (2), the IC50 value of inhibitory activity of the compounds on ^3 H-mibolerone specific binding was determined.

Assay [2] addresses T1, rat prostate androgen receptor. The experiment in a line: inhibitory activity on binding of ^3 H-5α-DHT on rat prostate androgen receptor. Conditions: ^3 H-5α-DHT 1 nM, rat ventral prostate cytosol, about 20 hours at 0° C.; read-out: Inhibitory activity on 5α-DHT specific binding [IC50 (M)]. How it is done:
The compounds obtained in Examples were evaluated in the following pharmacological studies A and B. The pharmacological study A was conducted in conformity with J.B.C. 256 (15) 7998-8005, 1981.
A. Measurement of inhibitory activity on binding of ^3 H-5α-[…] (^3 H-5α,-DHT) on rat prostate androgen receptor
(1) Preparation of cytosol from rat prostate
The rat was sacrificed 24 hours after castration, and the ventral lobe of prostate was removed, and was gently homogenized, on ice water bath, by using a Potter homogenizer in three-fold amount of 0.25M sucrose-TME buffer solution (50 mM tris-HCl (pH 7.4), 0.5 mM mercaptoethanol, and 0.1 mM EDTA-2 Na). The homogenate was filtrated through double gauze, and ultracentrifuged at 105000×g for 60 minutes, and the supernatant was used as androgen receptor.
(2) Measurement of ^3 H-5α-DHT specific binding on prostate cytoplasmic androgen receptor
To the cytosol obtained in (1), ^3 H-5α-DHT (47.8 Ci/mmol) was added, so that a final concentration is adjusted to 1 nM, and 0.25 M sucrose-TME buffer was added to adjust the final volume to 0.5 ml, and the reaction mixture was incubated for about 20 hours at 0° C. An ammonium sulfate solution dissolved in 0.25 M sucrose-TME buffer was mixed to be 35% saturation, and after standing for 90 minutes at 0° C., the mixture was centrifuged at 10000×g for 10 minutes at 4° C., and the precipitate was obtained.
This precipitate was suspended again in 0.8 ml of the above buffer solution, and furthermore in order to remove the free type ^3 H-5α-DHT, 0.2 ml of dextran-carbon powder suspension (4% activated carbon, 0.1% dextran T-70, and 0.1% gelatin dissolved in the above buffer solution) was added and mixed, and the mixture was let stand for 10 minutes at 0° C. At 4° C., in succession, the mixture was centrifuged at 3000×g for 10 minutes, and 0.5 ml of the supernatant was transferred into a vial, and 10 ml of aquasol-2 was added, and radioactivity was measured, and the total binding amount of ^3 H-5α-DHT on the prostate cytoplasma androgen receptor was determined. The nonspecific binding amount was similarly determined by adding a non-radioactive ligand (5α-DHT) to the reaction solution to a final concentration of 1 μM. The difference between the total binding amount and nonspecific binding amount was determined as the specific binding amount on the androgen receptor.
(3) Inhibitory activity of sample compounds on ^3 H-5α-DHT specific binding
The compounds obtained in Examples were incubated with ^3 H-5α-DHT at several concentrations same as in (2), and the specific binding amount of ^3 H-5α-DHT on the androgen receptor was determined. Comparing the obtained value with the value of (2), the IC50 value of the test compounds on ^3 H-5α-DHT specific binding was determined. The following compounds were used as the positive controls.

In the case of `Oc1ccnc2c(-c3ccc(Sc4ccccc4)cc3)cnn12` [Example 3, 7-Hydroxy-3-(4-phenylthiophenyl)pyrazolo[1,5-a]pyrimidine], the half-maximal inhibitory concentration (IC50) in assay [1] stood at 9e-08 M; in assay [2] it was 8.5e-07 M.

Consider `Cc1cc(O)n2ncc(-c3ccc(Sc4ccccc4)cc3)c2n1` [Example 5, 7-Hydroxy-5,methyl-3-(4-phenylthiophenyl)pyrazolo[1,5-a]pyrimidine], for which the IC50 in assay [1] and in assay [2] was 5e-07 M throughout. In the case of `Oc1ncnc2c(-c3ccc(Sc4ccccc4)cc3)cnn12` [Example 77, 4-Hydroxy-8-(4-phenylthiophenyl)pyrazolo[1,5-a]-1,3,5-triazine], the IC50 was determined as 4.6e-07 M in assay [1] and 9.6e-07 M in assay [2].

Turning to `Cc1cc(-c2cnn3c(O)ncnc23)ccc1SCc1ccccc1` [Example 79, 8-(4-Benzylthio-3-methylphenyl)-4-hydroxypyrazolo[1,5-a]-1,3,5-triazine], the IC50 in assay [2] is 1.1e-07 M. Same read-out and setting: for `Cc1cc(-c2cnn3c(O)ncnc23)ccc1Sc1ccccc1` [Example 81, 4-Hydroxy-8-(3-methyl-4-phenylthiophenyl)pyrazolo[1,5-a]-1,3,5-triazine] the value was 1.5e-07 M; for `Cc1ccccc1Sc1ccc(-c2cnn3c(O)ncnc23)cc1C` [Example 82, 4-Hydroxy-8-[3-methyl-4-(2-methylphenylthio)phenyl]pyrazolo[1,5-a]-1,3,5-triazine], 1.1e-06 M; for `Cc1cccc(Sc2ccc(-c3cnn4c(O)ncnc34)cc2C)c1` [Example 83, 4-Hydroxy-8-[3-methyl-4-(3-methylphenylthio)phenyl]pyrazolo[1,5-a]-1,3,5-triazine], 1.3e-07 M. Still for that read-out and setting: for `Cc1ccc(Sc2ccc(-c3cnn4c(O)ncnc34)cc2C)cc1` [Example 84, 4-Hydroxy-8-[3-methyl-4-(4-methylphenylthio)phenyl]pyrazolo[1,5-a]-1,3,5-triazine] the value was 1.5e-06 M; for `COc1cccc(Sc2ccc(-c3cnn4c(O)ncnc34)cc2C)c1` [Example 85, 4-Hydroxy-8-[4-(3-methoxyphenylthio)-3-methyl]phenylpyrazolo[1,5-a]-1,3,5-triazine], 1.6e-07 M; for `COc1ccc(Sc2ccc(-c3cnn4c(O)ncnc34)cc2C)cc1` [Example 86, 4-Hydroxy-8-[4-(4-methoxyphenylthio)-3-methyl]phenylpyrazolo[1,5-a]-1,3,5-triazine], 1.2e-07 M. Turning to `O=S(=O)(Nc1ccccc1)c1ccc(-c2cnn3c(O)ncnc23)cc1` [Example 87, 4-Hydroxy-8-(4-phenylaminosulfonylphenyl)pyrazolo[1,5-a]-1,3,5-triazine], the values for the IC50 in assay [1] and in assay [2] were 4e-08 M and 1.3e-07 M, respectively. In the case of `Cc1ccc(NS(=O)(=O)c2ccc(-c3cnn4c(O)ncnc34)cc2)cc1` [Example 88, 4-Hydroxy-8-[4-(4-methylphenylaminosulfonyl)phenyl]pyrazolo[1,5-a]-1,3,5-triazine], in assay [2], the IC50 was less than 5e-06 M.

For the compound `CCc1ccc(NS(=O)(=O)c2ccc(-c3cnn4c(O)ncnc34)cc2)cc1` [Example 89, 8-[4-(4-Ethylphenylaminosulfonyl)phenyl]-4-hydroxypyrazlo[1,5-a]-1,3,5-triazine], the IC50 in assay [2] is less than 5e-06 M. Still for that read-out and setting: to `CCc1cccc(NS(=O)(=O)c2ccc(-c3cnn4c(O)ncnc34)cc2)c1` [Example 90, 8-[4-(3-ethylphenylaminosulfonyl)phenyl]-4-hydroxypyrazolo[1,5-a]-1,3,5-triazine] belongs less than 5e-06 M; to `CCc1ccccc1NS(=O)(=O)c1ccc(-c2cnn3c(O)ncnc23)cc1` [Example 91, 8-[4-(2-ethylphenylaminosulfonyl)phenyl]-4-hydroxypoyrazolo[1,5-a]-1,3,5-triazine], less than 5e-06 M. On the same count and under the same terms, for `CC(C)c1ccc(NS(=O)(=O)c2ccc(-c3cnn4c(O)ncnc34)cc2)cc1` [Example 92, 4-Hydroxy-8-[4-(4-isopropylphenylaminosulfonyl)phenyl]pyrazolo[1,5-a]-1,3,5-triazine] the value was less than 5e-06 M; for `N#Cc1ccc(NS(=O)(=O)c2ccc(-c3cnn4c(O)ncnc34)cc2)cc1` [Example 94, 8-[4-(4-cyanophenylaminosulfonyl)phenyl]-4-hydroxypyrazolo[1,5-a]-1,3,5-triazine], 6e-07 M; for `O=S(=O)(Nc1ccc(Cl)cc1)c1ccc(-c2cnn3c(O)ncnc23)cc1` [Example 95, 8-[4-(4-chlorophenylaminosulfonyl)phenyl]-4-hydroxypyrazolo[1,5-a]-l,3,5-triazine], 1.2e-06 M. On the same count and under the same terms, for `O=S(=O)(Nc1cccnc1)c1ccc(-c2cnn3c(O)ncnc23)cc1` [Example 97, 4-Hydroxy-8-[4-(3-pyridylaminosulfonyl)phenyl]pyrazolo[1,5-a]-1,3,5-triazine] the value was 5e-06 M.

`O=S(=O)(NC1CCCCC1)c1ccc(-c2cnn3c(O)ncnc23)cc1` [Example 98, 8-(4-cyclohexylaminosulfonylphenyl)-4-hydroxypyrazolo[1,5-a]-1,3,5-triazine]: the IC50 in assay [2] came to 3.6e-07 M. On the same count and under the same terms, to `Cc1cc(-c2cnn3c(O)ncnc23)ccc1Sc1ccc(Br)cc1` [Example 100, 8-[4-(4-bromophenylthio)-3-methylphenyl]-4-hydroxypyrazolo[1,5-a]-1,3,5-triazine] belongs 4e-07 M. On to `COc1cc(-c2cnn3c(O)ncnc23)ccc1Sc1ccccc1` [Example 101, 4-Hydroxy-8-(3-methoxy-4-phenylthiophenyl)pyrazolo [1,5-a]-1,3,5-triazine], for which the IC50 in assay [1] is 1.5e-07 M; in assay [2] it was 3e-07 M. As to `Oc1ncnc2c(-c3ccc(Sc4ccccc4)c(Cl)c3)cnn12` [Example 102, 8-(3-chloro-4-phenylthiophenyl)-4-hydroxypyrazolo[1,5-a]-1,3,5-triazine], in assay [2], the IC50 was determined as 2.2e-06 M.

On to `Cc1cc(-c2cnn3c(O)ncnc23)ccc1S(=O)(=O)Nc1ccccc1` [Example 103, 4-Hydroxy-8-(3-methyl-4-phenylaminosulfonylphenyl)pyrazolo[1,5-a]-1,3,5-triazine], for which the IC50 in assay [2] turned out to be 2.5e-07 M.

In general, IC50 refers to the concentration that inhibits the measured activity by half.
